The assay has as its system Nucleic Acid. The experiment in a line: Compound was evaluated for its binding affinity constant to calf thymus DNA. It is filed as nucleic-acid assay. Conditions: Bos taurus.
For `COC(=O)c1cc(NC(=O)c2cc(NC(=O)c3cc(NC(=O)c4cc(S(=O)(=O)CC#CCO)cc5ccccc45)cn3C)cn2C)cn1C`, the Binding affinity turned out to be 89000 M⁻¹.

In turn, `COC(=O)c1cc(NC(=O)c2cc(NC(=O)c3cc(NC(=O)c4cccc5c(S(=O)(=O)CC#CCO)cccc45)cn3C)cn2C)cn1C` yielded a Binding affinity of 720000 M⁻¹.

With `O=S(=O)(CC#CCO)c1cccc2ccccc12`, the Binding affinity came to 46000 M⁻¹.

For the origin of these results see ChEMBL document CHEMBL1126525, “Synthesis and DNA cleaving properties of hybrid molecules containing propargylic sulfones and minor groove binding lexitropsins” (Bioorg Med Chem Lett, 1993).
